This assay concerns Cyclin B1 mRNA. Description: Quantitative Real-time PCR of Cyclin B1 mRNA. The format is cell-based, human. Here is the method:
Primers were designed using PrimerQuest software (Integrated DNA Technologies). RNA was extracted using Trizol (Invitrogen, Carlsbad, Calif., USA) using the manufacturer's protocol. 1 μg RNA was reverse-transcribed in a total volume of 20 μl using the Superscript First strand cDNA synthesis kit (Invitrogen). PCR was performed in triplicate using an ABI-Prism 7900 instrument (Applied Biosystems, Foster City, Calif.) and SYBR Green I detection (Applied Biosystems) according to the manufacturer's protocol. The expression of each target gene was normalized to the expression of GAPDH RNA and is presented as the ratio of the target gene to GAPDH RNA, expressed as 2-ΔCt, where Ct is the threshold cycle and ΔCt=Ct Target−Ct GAPDH.
No change in cyclin B1 levels were detected at earlier time points. The dephosphorylation of Cdk1 (Cdc2) at Thr14 is a critical event for its activation, permitting mitotic entry. Cdk1 protein levels remained unaltered, as did pT14Cdc2 levels (FIG. 17B). Quantitative Real-time PCR was carried out to determine whether Cyclin B1 inhibition was partially at the transcriptional level.
In general terms: In qPCR the cycle at which signal appears reflects the starting amount.

This is an account of results in patent US10208007B2, “Use of strigolactones and strigolactone analogs for treating proliferative conditions” (The State of Israel, Ministry of Agriculture & Rural …, priority 2011, dated 2019).

The structures appear in SMILES notation.

In the case of `CC1=CC(O/C=C2\Cc3c(n(C)c4cc(-c5cccs5)ccc34)C2=O)OC1=O` (racemic) [MEB-55, (±) 2E-4-methyl-2-(4-methyl-5-oxo-2,5-dihydrofuran-2-yloxymethylene)-6-thiophen-2-yl-1,4-dihydro-2H-cyclopenta[b]indol-3-one], the “Cyclin B1 mRNA compared to vehicle controls” value reads like this: (A549, 10 ppm) “two fold decrease”; (HCT116, 10 ppm) “two fold decrease”.
